# Read-outs that look alike come from different tables or passages of the source.
# Legend:
# human LINE-1 [1] = experiment: Human LINE-1 retrotransposition assay, related experiments with islatravir (pYX017, HeLa cells, Tables 12 and 13); type: cell-based
# Description: In related experiments, islatravir and other compounds were tested for inhibition of retrotransposition activity of human LINE-1 in HeLa cells according to the following procedure.
# HeLa cervical cancer cells were cultivated at 37° C. in a humidified 5% CO2 incubator in Dulbecco's Modified Eagle's Medium (DMEM)—high glucose, with 4500 mg/L glucose, L-glutamine, sodium pyruvate and sodium bicarbonate (Sigma), supplemented with 10% of heat inactivated fetal bovine serum (Thermo Fisher).
# Assays were performed using reporter plasmid pYX017 as described (Xie, et al., 2011) with several modifications. The reporter assay was performed in 96-well white optical bottom plates. HeLa cells were seeded in wells 24 h prior to transfection and compound treatment so that cells were approximately 30% confluent on the day of transfection. Different cell plating densities were tested and a density of 2×10^3 cells was determined to be optimal.
# Compounds were resuspended in DMSO. Serial dilutions (1:3) were prepared in DMSO. Medium containing different concentrations of the compounds were prepared by adding 2 μl of the compound dilution to 1 ml of the culture medium. The final concentration of DMSO in the medium was 0.2%.
# FuGENE® HD transfection reagent (Promega, E2311, Lot 382574 and Lot 397842) was used to transfect the plasmids into the cells. The transfection reagent: DNA mixture was prepared in OpiMEM (Thermo Fisher) according to manufacturer's instructions. Different ratios of transfection reagent to DNA were tested and a ratio of 3:1 was determined to be optimal. Culture medium was removed from the cells and discarded. The transfection reagent: DNA mixture (5 μl) was mixed with the compound containing medium (100 μl/well) and this was added onto the cells of each well. Cells were incubated at 37° C./5% CO2 for different incubation time. A 72 h incubation time was determined to be optimal.
# Luciferase reporter activity was quantified with the Dual-Luciferase® Reporter Assay System (Promega) according to manufacturer's instructions for multiwell plates except that cells were lysed directly on the multiwell plate with 30 μl of the passive lysis buffer (PLB) for 20 min at room temperature, with gentle shaking to ensure complete cell lysis.
# Firefly and Renilla luciferase signals were measured using a SpectraMax i3x Multi-Mode Microplate Reader. Integration times of 100 ms and 10 ms were used to measure the Firefly and Renilla signals respectively. Relative L1 activity is calculated as Firefly/Renilla *1000 or Firefly/Renilla *10,000. Dose response inhibition data were fit to a four parameter logistic equation using non-linear regression (using Graphpad Prism 8), to determine IC50 values for each inhibitor.
# mouse LINE-1 = experiment: Mouse LINE-1 retrotransposition assay (dual luciferase pYX016 reporter, HeLa cells); type: cell-based
# Description: Elvucitabine was obtained by custom synthesis. […] HeLa cervical cancer cells were cultivated at 37° C. in a humidified 5% CO2 incubator in Dulbecco's Modified Eagle's Medium (DMEM)-high glucose, with 4500 mg/L glucose, L-glutamine, sodium pyruvate and sodium bicarbonate (Sigma), supplemented with 10% of heat inactivated fetal bovine serum (Thermo Fisher). Assays were performed as described in Xie et al., 2011^151 with several modifications. The reporter assay was performed in 96 well white Optical bottom plates. 6000 HeLa cells were seeded in each well 24 hours prior transfection and compound treatment. All compounds were resuspended in DMSO. Stock solution concentrations varied from 50 mM to 1.25 mM depending of the solubility of the compound. Serial dilutions (1:3) were prepared in DMSO. Ten different concentrations of each compound were tested in triplicate. Medium containing different concentrations of the compounds were prepared by adding 2 μL of the compound dilution to 1 mL of the culture medium. The final concentration of DMSO in the medium was 0.2%. FuGENE® HD transfection reagent (Promega) was used to transfect the plasmid pYX016 into the cells. The transfection mix was prepared in OpiMEM (Thermo Fisher) using a reagent to DNA ratio of 3.5:1 according to manufacturer's instructions. Culture medium was removed from the cells and discarded. The transfection mix (5 μL) was mixed with the compound containing medium (100 μL/well) and this was added onto the cells of each well. Cells were incubated for 48H at 37° C./5% CO2. Luciferase reporter activity was quantified with the Dual-Luciferase® Reporter Assay System (Promega) according to manufacturer's instructions for multiwell plates with the following modification: Cells were lysed directly on the multiwell plate with 30 μL of the passive lysis buffer (PLB) for 20 min at room temperature, with gentle shaking to ensure complete cell lysis (instead of 20 μL of PLB for 15 min). Firefly and Renilla luciferase signals were measured using a SpectraMax i3x Multi-Mode Microplate Reader. […] Relative L1 activity was calculated as Firefly/Renilla *10,000. […] The experiment was performed twice, independently.
# human LINE-1 [2] = experiment: Human LINE-1 retrotransposition assay (dual luciferase pYX017 reporter, HeLa cells, Table 11); type: cell-based
# Description: Assays were performed as described in Xie et al., 2011^151 with several modifications. The reporter assay was performed in 96 well white Optical bottom plates. 6000 HeLa cells were seeded in each well 24 hours prior transfection and compound treatment. All compounds were resuspended in DMSO. Stock solution concentrations varied from 50 mM to 1.25 mM depending of the solubility of the compound. Serial dilutions (1:3) were prepared in DMSO. Ten different concentrations of each compound were tested in triplicate. Medium containing different concentrations of the compounds were prepared by adding 2 μL of the compound dilution to 1 mL of the culture medium. The final concentration of DMSO in the medium was 0.2%. FuGENE® HD transfection reagent (Promega) was used to transfect the plasmid pYX016 into the cells. The transfection mix was prepared in OpiMEM (Thermo Fisher) using a reagent to DNA ratio of 3.5:1 according to manufacturer's instructions. Culture medium was removed from the cells and discarded. The transfection mix (5 μL) was mixed with the compound containing medium (100 μL/well) and this was added onto the cells of each well. Cells were incubated for 48H at 37° C./5% CO2. Luciferase reporter activity was quantified with the Dual-Luciferase® Reporter Assay System (Promega) according to manufacturer's instructions for multiwell plates with the following modification: Cells were lysed directly on the multiwell plate with 30 μL of the passive lysis buffer (PLB) for 20 min at room temperature, with gentle shaking to ensure complete cell lysis (instead of 20 μL of PLB for 15 min). Firefly and Renilla luciferase signals were measured using a SpectraMax i3x Multi-Mode Microplate Reader. […] Relative L1 activity was calculated as Firefly/Renilla *10,000. […] The experiment was performed twice, independently. […] Because the human construct yields a lower signal, compounds were incubated with cells for 72 hours instead of 48 hours, and cells were seeded at a density of 2000/well instead of 6000/well. In addition, the transfection reagent to DNA ratio was 2:1 instead of 3.5:1.
# [3] = Table 13 Comparative Studies; cited from earlier work
# [4] = Comparative studies: intracellular drug concentration relative to LINE-1 IC50 and huCSF/Plasma ratio; conditions: Table 13 Comparative Studies
# human LINE-1 [5] = experiment: Islatravir Inhibitory Quotient (IQ) estimate for human LINE-1 in PBMC and brain; conditions: PBMC, intracellular EFdA-TP, used for IQ
# HIV WT = conditions: read-out: IC50 for HIV (intracellular EFdA-TP); cited from earlier work
# [6] = in vivo; cited from earlier work
# [7] = Homo sapiens, HeLa cells, pYX017, 72 h, n = 3, read-out: Human LINE-1 IC50, Average
# [8] = Homo sapiens, HeLa cells, pYX017, 72 h, read-out: Human LINE-1 IC50, Exp. 3
# [9] = Homo sapiens, HeLa cells, pYX017, 72 h, read-out: Human LINE-1 IC50, Exp.1
# [10] = Homo sapiens, HeLa cells, pYX017, 72 h, read-out: Human LINE-1 IC50, Exp.2
# [11] = pYX016, 48 H post-transfection, read-out: Mouse L1 activity inhibition IC50, Exp. 1
# [12] = pYX016, 48 H post-transfection, read-out: Mouse L1 activity inhibition IC50, Exp. 2
# [13] = pYX016, 48 H, n = 2, read-out: Mouse L1 activity inhibition IC50, Average
# [14] = Homo sapiens, HeLa, Table 13 Comparative Studies, read-out: Human Line-1 IC50
SMILES,IC50 (human LINE-1 [1]; [7]) [nM],IC50 (human LINE-1 [1]; [8]) [nM],IC50 (human LINE-1 [1]; [9]) [nM],IC50 (human LINE-1 [1]; [10]) [nM],IC50 (mouse LINE-1; [11]) [nM],IC50 (mouse LINE-1; [12]) [nM],IC50 (mouse LINE-1; [13]) [nM],also measured
Cc1cc(/C=C/C#N)cc(C)c1Nc1ccnc(Nc2ccc(C#N)cc2)n1 [Rilpivirine],> 15100,45500,> 50000,15100,,,,
Nc1ccn([C@H]2CO[C@@H](CO)S2)c(=O)n1 [Apricitabine],,,,,4440,3820,4130,
C#C[C@@]1(CO)C=C[C@H](n2cc(C)c(=O)[nH]c2=O)O1 [Censavudine],100,50,130,120,118,105,112,"IC50 (mouse LINE-1; read-out: mouse L1 inhibition IC50): ~100 nM; IC50 (human LINE-1 [2]; pYX017, 72 H post-transfection, read-out: Human L1 activity inhibition IC50, Exp. 1): 53 nM; IC50 (human LINE-1 [2]; pYX017, 72 H post-transfection, read-out: Human L1 activity inhibition IC50, Exp. 2): 92 nM; IC50 (human LINE-1 [2]; pYX017, 72 H, n = 2, read-out: Human L1 activity inhibition IC50, Average): 72 nM; IC50 (human LINE-1 [2]; read-out: human L1 inhibition IC50): ~100 nM"
Cc1ccnc2c1NC(=O)c1cccnc1N2C1CC1 [Nevirapine],> 50000,,> 50000,> 50000,,,,
O=C1Nc2ccc(Cl)cc2[C@@](C#CC2CC2)(C(F)(F)F)O1 [Efavirenz],> 250,,> 50000,> 250,,,,
O=C(NCc1c(F)cc(F)cc1F)c1cn2c(c(O)c1=O)C(=O)N1[C@H]3CC[C@H](C3)O[C@@H]1C2 [Bictegravir],> 12400,,12400,> 50000,,,,
Cc1nnc(C(=O)NC(C)(C)c2nc(C(=O)NCc3ccc(F)cc3)c(O)c(=O)n2C)o1 [Raltegravir potassium],> 9860,49300,9860,> 50000,,,,
C[C@H](Cn1cnc2c(N)ncnc21)OCP(=O)(O)O [Tenofovir],,,,,3470,4020,3750,"IC50 (human LINE-1 [1]; Table 13 Comparative Studies, read-out: Human Line-1 IC50): 2770 nM"
"Nc1nc(NC2CC2)c2ncn([C@H]3C=C[C@@H](CO)C3)c2n1 [Abacavir (ABC), Abacavir]",,,,,,,,IC50 (human LINE-1 [1]; [14]): 17100 nM; huCSF/Plasma [3]: 0.67; Human Line-1 Intracellular drug conc. (% of IC-50 conc.) [4]: 106%
C[C@@H]1CCO[C@H]2Cn3cc(C(=O)NCc4ccc(F)cc4F)c(=O)c(O)c3C(=O)N12 [Dolutegravir sodium],> 9380,> 20000,9380,,,,,
"CC(C)OC(=O)OCOP(=O)(CO[C@H](C)Cn1cnc2c(N)ncnc21)OCOC(=O)OC(C)C [Tenofovir Disiproxil, tenofovir disoproxil]",,,,,157,151,154,IC50 (human LINE-1 [1]; [14]): 200 nM
Cc1cn([C@H]2C=C[C@@H](CO)O2)c(=O)[nH]c1=O [Stavudine],,,,,1590,1860,1720,IC50 (human LINE-1 [1]; [14]): 750 nM; huCSF/Plasma [3]: 0.2; Human Line-1 Intracellular drug conc. (% of IC-50 conc.) [4]: 63%
Cc1cn([C@H]2C[C@H](N=[N+]=[N-])[C@@H](CO)O2)c(=O)[nH]c1=O [Zidovudine],810,1680,410,340,,,,
C#C[C@]1(COP(=O)(O)OP(=O)(O)OP(=O)(O)O)O[C@@H](n2cnc3c(N)nc(F)nc32)C[C@@H]1O [EFdA-TP],,,,,,,,EC50 (human LINE-1 [5]): 316 nM; IC50 (HIV WT): 49 nM; intracellular T-half in human PBMC [6]: 78.5 to 128 h
